Laboratory results as given in article PMC7041945, “Misfolded proteins bind and activate death receptor 5 to trigger apoptosis during unresolved endoplasmic reticulum stress” (eLife, 2020).

What was measured:
MPZ = assay: qPCR of transfected MPZ transcript (primers 296+297), normalized to GAPDH; type: cell-based; conditions: qPCR Rep 2, WT MPZ GFP 1000 ng, or empty traffo + Tg; for 2^-(deltaCq), MPZ: vs avg GAPDH
[1] = tested on: GADD34 mRNA in HCT116 cells; assay: qPCR of GADD34 transcript; type: cell-based, Homo sapiens; conditions: HCT116, 100 nM for 24 hours, norm to GAPDH
[2] = tested on: DR5 / ERGIC53 / giantin in HCT116 cells; assay: Immunofluorescence co-localization (Pearson's correlation per cell); type: cell-based, Homo sapiens
Protocol: HCT116 were seeded at 25000 cells per well in an 8-well glass-bottom μSlide (Ibidi 80827) pre-coated with Collagen IV (Sigma-Aldrich C6745, 0.03 mg/ml in PBS incubated for 30 min at RT, and then rinsed off with PBS x 3) in growth media 18 hr prior to transfection (see above for protocol). 24 hr post-transfection, the cells were fixed using 4% paraformaldehyde (PFA, Electron Microscopy Sciences) or methanol, depending on the antibody combination used for immunostaining (see table below). Samples were protected from light after fixation to preserve GFP fluorescence.
For fixation with 4% PFA, 32% PFA was added directly to the well in growth media for a 1:8 dilution and incubated for 10–15 min at RT. Cells were then permeabilized with PHEM buffer (60 mM PIPES, 25 mM HEPES, 10 mM EGTA, 2 mM MgCl2-hexahydrate, pH 6.9) containing 0.1% Triton-X100 for 10 min at RT for three washes.
For fixation with methanol, media was removed and cells were washed with cold PBS. Then methanol (pre-cooled at −20°C) was added to the well and incubated at −20°C for 3–4 min. The methanol was promptly aspirated and replaced with PHEM buffer (without Triton X-100), followed by two more 10 min washes with PHEM at RT.
To block against non-specific antibody interactions, cells were rinsed in PHEM (without 0.1% Triton X-100) and then incubated with PHEM containing 2% normal goat serum (Jackson Immunoresearch Laboratories, 005-000-121) for 1 hr at RT. Primary antibodies were incubated in blocking solution overnight at 4°C at the dilution noted in the table above. Cells were then washed with PHEM buffer for 10 min at RT x three and incubated with secondary antibodies, anti-mouse-AlexaFluor546 (Invitrogen A11030) and anti-rabbit-AlexaFluor633 (Invitrogen A21071), diluted 1:1000 in PHEM with 2% normal goat serum. (Secondary antibody solutions were centrifuged at 15000xg for 20 mins at 4°C to remove aggregates prior to incubating with cell samples.) After a 1 hr incubation at RT, cells were washed with PHEM buffer once, then incubated with PHEM buffer containing nuclear stain (DAPI, Molecular Probes, Eugene, OR, D-1306, 5 μg/mL), and finally rinsed with PHEM buffer twice before imaging.
Samples were imaged on a spinning disk confocal with Yokogawa CSUX A1 scan head, Andor iXon EMCCD camera, and 40x Plan Apo air Objective NA 0.95 or 100x ApoTIRF objective NA 1.49 (Nikon).
From the 405 nm channel, cell nuclei were identified as primary objects using maximum correlation thresholding (MCT) and shape to distinguish clumped objects. Secondary objects were outlined using propagation from the nuclei (DAPI) after applying MCT from the 488 nm, 561 nm, and 633 nm channels. Tertiary objects for each cell was identified as the mask of each nucleus subtracted from the mask of its corresponding secondary object in each channel, yielding masks for intracellular GFP-tagged protein from the 488 nm channel, for intracellular DR5 from the 561 nm channel, and for the organelle marker in the 633 nm channel. For overlap between DR5 and MPZ/RHO-GFP, Pearson’s correlation coefficients were calculated within the MPZ/RHO mask for each cell to filter out untransfected cells. For overlap between DR5/MPZ and organelle markers, Pearson’s correlation coefficients were calculated within tertiary objects for the organelle marker in GFP+ cells. Statistical analyses for all data sets were performed using GraphPad Prism 6.0.

[3] = tested on: caspase 8 in HCT116 GFP-Trap immunoprecipitates; assay: Caspase 8 activity (caspase glo 8) of GFP immunoprecipitates (beads); type: cell-based, Homo sapiens; conditions: for Mean ± SEM (IP): GFPTrap beads, relative to GFP; for 95% confidence interval of difference (IP) / Difference between means (IP): vs. GFP
Protocol: 15 cm dishes were seeded with 4 million HCT116 cells and allowed to recover for 18 hr prior to transfection. Samples were then transfected for 24 hr with the GFP-tagged ER trafficked protein, cytosolic GFP, or empty vector. To harvest apoptotic and living cells for each sample, all media and washes were collected. Cells were scraped in 2 ml of cold PBS and combined with the media and washes. Samples were centrifuged to pellet cells, washed with 1 ml cold PBS, and flash frozen in liquid N2 prior to lysis.
The cell pellets were resuspended in 750 μl of 30 mM HEPES pH 7.2, 150 mM NaCl, 1% Triton X-100 with 1x Roche protease inhibitor cocktail (if used subsequently for caspase glo 8 assay) or with 5x Roche protease inhibitor cocktail (if used for immunoblotting). The cells were lysed by mechanical shearing through a 25G needle for 13–15 plunges followed by incubation on ice for 30 min. The lysate was centrifuged at 2000xg for 5 min to remove debris and then incubated with 30 μl of GFP-Trap magnetic agarose beads (Chromotek gtma-20) for 4 hr at 4°C. The beads were then washed with 750 μl of lysis buffer for 10 min at 4°C for three rounds.
For measuring caspase activity, a fifth of the beads was resuspended in 40 μl of 30 mM HEPES pH 7.2, 150 mM NaCl, 1% Triton X-100. 10 μl of the resuspended mixture was incubated with 10 ul of the caspase glo 8 luminogenic substrate (Promega #PRG8200) for 45 min at RT before measuring luminescence.

[4] = tested on: XBP1 mRNA in HCT116 cells; assay: RT-PCR for Xbp1 mRNA splicing; type: cell-based, Homo sapiens; conditions: HCT116, 24 hr
Protocol: Cells were grown in 6-well plates and harvested with 0.5 ml of TRIzol reagent (Life Technologies) per manufacturer's protocol to extract RNA. […] The reverse transcription product was diluted to 200 μl with 10 mM Tris-HCl pH 8.2 and used at 1:100 dilution for subsequent RT-PCR reactions. 2 μl of cDNA was added to 0.2 μM of forward and reverse primers ([…]; Hs_XBP1_Rev: [NT]), 0.2 mM of each dNTP, 0.5 units of Taq DNA polymerase (Thermo Scientific). The reaction was set at an annealing temperature of 60.5°C with an extension time of 30 s for 26 cycles.

[5] = HCT116, 24 hr post-transfection, Mean ± SEM

fold change relative to GFP (GFPTrap beads) ([3]; Rep 1) [fold change]	fold change relative to GFP (GFPTrap beads) ([3]; Rep 2) [fold change]	fold change relative to GFP (GFPTrap beads) ([3]; Rep 3) [fold change]	GFPTrap beads RLUs ([3]; replicate 1) [RLUs]	GFPTrap beads RLUs ([3]; replicate 2) [RLUs]	GFPTrap beads RLUs ([3]; replicate 3) [RLUs]	95% confidence interval of difference (IP) [3]	Difference between means (IP) [3]	Compound	XBP1 mRNA splicing [4]	further results
								C/C=C(/C)C(=O)O[C@H]1C(C)=C2[C@H]([C@@H]1OC(=O)CCCCCCC)[C@@](C)(OC(C)=O)C[C@H](OC(=O)CCC)[C@@]1(O)[C@H]2OC(=O)[C@@]1(C)O [thapsigargin, reference compound]		avg. fold induction relative to WT MPZ DMSO, MPZ (MPZ; mean of 3): 9.712 fold; fold induction relative to WT MPZ DMSO, MPZ (MPZ; replicate 1): 3.402 fold; fold induction relative to WT MPZ DMSO, MPZ (MPZ; replicate 2): 14.9405 fold; fold induction relative to WT MPZ DMSO, MPZ (MPZ; replicate 3): 10.7918 fold; 2^-(deltaCq), MPZ (MPZ; replicate 1): 0.0001664; 2^-(deltaCq), MPZ (MPZ; replicate 2): 0.0007308; 2^-(deltaCq), MPZ (MPZ; replicate 3): 0.0005279; avg. fold induction, GADD34 [1]: 11.3183
								FTWRYQPEGGRDAISIFHYA [MPZ-ecto peptide-eGFP, expressed construct: MPZ ectodomain replaced by the MPZ-ecto peptide, GFP-tagged]		Pearson's correlation per cell of GFP-tagged peptide with DR5 [2, 5]: 0.23 ± 0.04; Pearson's correlation per cell of GFP-tagged peptide with ERGIC [2, 5]: 0.18 ± 0.04; Pearson's correlation per cell between DR5 and ERGIC ([2]; HCT116 expressing GFP-tagged peptide, 24 hr, Mean ± SEM): 0.34 ± 0.03
1.64	0.68	1.36	115.391	47.845	95.69	0.1175 to 0.8825	0.5000 ± 0.1202	INS-GFP: GFP-tagged proinsulin expressed from plasmid	induced XBP1 mRNA splicing	Mean ± SEM (IP) ([3]; n=2): 1.500 ± 0.1400, n=2
4.68	4.56	5.28	329.286	320.842	371.502	3.209 to 4.472	3.840 ± 0.2275	RHO-GFP: GFP-tagged rhodopsin expressed from plasmid	induced XBP1 mRNA splicing	caspase 8 activity of immunoprecipitates ([3]; GFP pulldown): enriched for DR5 protein and caspase 8 activity more robustly than INS-GFP; Mean ± SEM (IP) ([3]; n=3): 4.840 ± 0.2227, n=3; average fold change relative to GFP (GFPTrap beads) ([3]; average of replicates): 4.84 fold change; overlap (mean Pearson's correlation) with DR5 signal ([2]; versus 90° rotated images, 24 hr): statistically significant overlap with DR5 signal
